{"source": "patent US12351595B2", "about": "“Composition comprising O-cyclic phytosphingosine-1-phosphate for preventing or treating Parkinson's disease” (AXCESO BIOPHARMA CO., LTD., priority 2019, dated 2025)", "key": {"SH-SY5Y cells": {"system": "SH-SY5Y cells", "assay": "MPP+-treated Parkinson's disease cell model, cell survival (MTT assay)", "assay_type": "cell-based, human", "experimental": "To prepare a Parkinson's disease cell model by inducing oxidative stress with MPP^+ (1-methyl-4-phenylpyridinium iodide, Sigma), MPP^+ was dissolved in a phosphate buffer solution, diluted to a final concentration of 3 mM, and added to a nerve cell culture medium. To confirm the efficacy of the cP1P drug in the MPP^+ environment, SH-SY5Y cells were pretreated with cP1P drug at concentrations of 10 nM, 100 nM, and 1000 nM, respectively, for 1 hour, and then exposed to oxidative stress by treatment with 3 mM MPP^+ for 24 hours. The efficacy of the cP1P drug on the survival of SH-SY5Y cells after 24 hours of exposure to oxidative stress was determined by MTT assay."}, "[1]": {"system": "SH-SY5Y human nerve cell line", "assay": "Proliferation of SH-SY5Y human nerve cells (MTT assay)", "assay_type": "cell-based", "conditions": "48 hours", "experimental": "The SH-SY5Y human nerve cell line purchased from ATCC was used as a nerve cell line to evaluate the effect of the cP1P drug on the proliferation of dopaminergic human nerve cells. Dulbeco's Modified Eagle's Media/high glucose (with 10% FBS, 0.5% P/S) was used as a medium for culturing nerve cells, and the nerve cells were cultured at 37° C. in 5% CO2 incubator.\nIn order to observe the effect of cP1P drug on the proliferation of the dopaminergic human nerve cells, SH-SY5Y cells were treated with cP1P drug at concentrations of 10 nM, 100 nM and 1000 nM, respectively, and cultured for 48 hours. MTT assay (Molecular Probes) was performed according to the manufacturer's method to measure the cell proliferation rate."}, "SH-SY5Y nerve cells": {"system": "SH-SY5Y nerve cells", "assay": "Rotenone-treated Parkinson's disease cell model, necrotic cell death (LDH detection kit)", "assay_type": "cell-based, human", "experimental": "Rotenone is a substance widely used in cell models to induce Parkinson's disease. It is well known that when a nerve cell is treated with rotenone, mitochondrial function is destroyed, and oxidative stress is induced to cause death of the nerve cell.\nThe SH-SY5Y nerve cell culture medium was treated with cP1P drug at concentrations of 100 nM and 1000 nM, respectively, and cultured for 24 hours. Then, rotenone (Sigma) was dissolved in DMSO, diluted to a final concentration of 2 μM, and added to the SH-SY5Y nerve cell culture medium. The SH-SY5Y nerve cells were cultured for an additional 24 hours. SH-SY5Y nerve cells were obtained and cultured in the same manner as in Example 1.\nNecrotic cell death was measured for the cultured SH-SY5Y nerve cells using a lactate dehydrogenase (LDH) detection kit (BioVision).\nFor comparison, the necrotic cell death was also measured for the control group that was treated only with DMSO without cP1P drug and rotenone, and the control group that was treated only with diluted rotenone solution without cP1P drug. In addition, the necrotic cell death was measured for the treatment of the nerve cells with the cP1P drug at concentrations of 100 nM and 1000 nM, respectively."}, "[2]": {"system": "Tyrosine hydroxylase (TH)", "assay": "Tyrosine hydroxylase (TH) expression in SH-SY5Y nerve cells (immunohistochemistry and western blot)", "assay_type": "cell-based, human", "conditions": "24 hours", "experimental": "Tyrosine hydroxylase (TH) is an enzyme that converts amino acid tyrosine into L-DOPA, a precursor of dopamine, and plays an important role in the formation of dopamine in nerve cells.\nIn order to confirm the efficacy of the cP1P drug on TH expression in SH-SY5Y nerve cells, SH-SY5Y nerve cell culture was treated with the cP1P drug at concentrations of 10 nM and 100 nM, respectively. TH expression was determined by immunohistochemistry and western blot after 24 hours."}}}
{"compound": "C[n+]1ccc(-c2ccccc2)cc1.[I-]", "note": "[MPP^+, 1-methyl-4-phenylpyridinium iodide, reference compound]", "values": [{"measurement": "nerve cell death", "setting": "SH-SY5Y cells; MPP+ 3 mM only, 24 hours", "result": "the nerve cells were killed"}]}
{"compound": "CCCCCCCCCCCCCC[C@@H](O)[C@H]1OP(=O)(O)OC[C@@H]1N", "note": "[cP1P, O-cyclic phytosphingosine-1-phosphate]", "values": [{"measurement": "effect on the proliferation of SH-SY5Y cells", "setting": "[1]; 10 nM", "result": "effect on the proliferation of SH-SY5Y cells appeared"}, {"measurement": "effect on the nerve cell proliferation", "setting": "[1]; 100 nM (of 10, 100, 1000 nM)", "result": "highest"}, {"measurement": "degree of cell death", "setting": "SH-SY5Y nerve cells; cP1P 100 nM and 1000 nM alone, without rotenone", "result": "reduced the degree of cell death compared to the control group treated only with DMSO"}, {"measurement": "nerve cell death", "setting": "SH-SY5Y nerve cells; cP1P 100 nM and 1000 nM for 24 hours, then rotenone 2 μM for 24 hours", "result": "inhibited to the level equivalent to that of DMSO treatment without rotenone"}, {"measurement": "expression of the TH enzyme", "setting": "[2]; 10 nM", "result": "increased"}, {"measurement": "expression of the TH enzyme", "setting": "[2]; 100 nM", "result": "increased"}, {"measurement": "nerve cell death", "setting": "SH-SY5Y cells; cP1P 100 nM pretreatment 1 hour, then 3 mM MPP+ 24 hours", "result": "significantly reduced"}, {"measurement": "nerve cell death", "setting": "SH-SY5Y cells; cP1P pretreatment (10, 100, 1000 nM) 1 hour, then 3 mM MPP+ 24 hours", "result": "significantly reduced"}]}
{"compound": "C=C(C)[C@H]1Cc2c(ccc3c2O[C@@H]2COc4cc(OC)c(OC)cc4[C@@H]2C3=O)O1", "note": "[rotenone, reference compound]", "values": [{"measurement": "degree of nerve cell death", "setting": "SH-SY5Y nerve cells; rotenone 2 μM only, 24 hours", "result": "exceed 30%"}]}
